These results are taken from paper PMC8624133, “10th Trends in Medical Mycology Held on 8 to 11 October 2021, Aberdeen, Scotland, Organized by the European Confederation of Medical Mycology (ECMM)” (Journal of Fungi, 2021).

≈ marks a conversion by molar mass, not a printed value. Like-named read-outs stand apart in the source and are kept apart here. Some results are limits rather than exact numbers.

The test system of experiment [1] is A. fumigatus veterinary isolates. Nature of the experiment: EUCAST microdilution of veterinary isolates. It is filed as cell-based, Aspergillus fumigatus. How it is done:
All have been confirmed as A. fumigatus by MALDI-TOF MS using the BCCM/IHEM database. The antifungal susceptibility was evaluated using the microdilution EUCAST method. Cyp51A gene sequencing has been performed on all resistant isolates.
On the technique in general: In broth dilution the organism is exposed to a series of concentrations in liquid medium.

A further experiment has as its system McLDM strains. The experiment is described as follows: EUCAST MIC, S. cerevisiae overexpressing M. circinelloides LDM, resistance phenotypes. It is filed as cell-based, Saccharomyces cerevisiae.
Another experiment concerns Trichophyton spp. The experiment is described as follows: Agar-based screening method. It is filed as cell-based. As to conditions: 0.5 McF, 5 days, 30 °C. How it is done: Inter-experimental variation was evaluated by testing 10 isolates on three different days. Single-centre validation: After determining the optimal conditions for the agar screening method, 112 molecularly identified Trichophyton spp. clinical isolates were tested.

The test system of experiment [2] is Candida auris isolates. The experiment is described as follows: Disc diffusion, Oxoid discs. It is filed as cell-based. As to conditions: 25 µg FLU and 5 µg CAS discs; […].
Experiment [3] has as its system C. albicans SC5314 experimental population. The experiment is described as follows: Experimental evolution under fluconazole, azole susceptibility. It is filed as cell-based. As to conditions: Candida albicans.
The next experiment has as its system McLDM-F5. The experiment is described as follows: microbe, parasite or virus in culture. It is filed as cell-based, Saccharomyces cerevisiae AD2Δgal. The following applies: Saccharomyces cerevisiae, read-out: mean MIC.
For the next experiment, the system named is C. parapsilosis. The experiment is described as follows: Vitek and EUCAST microdilution susceptibility. It is filed as cell-based, Candida parapsilosis. As to conditions: Lodderomyces parapsilosis.
In the next experiment the test system is Candida isolates. It is filed as cell-based, Candida spp.
The next experiment has as its system Cryptococcal isolates. Nature of the experiment: CLSI broth micro dilution. It is filed as cell-based, Cryptococcus neoformans, C. gattii.
A further experiment concerns C. guilliermondii. Nature of the experiment: EUCAST E. Def 7.3.2 microdilution. It is filed as cell-based, Candida guilliermondii. The following applies: for MIC50 / MIC90 / GM / MIC Range: n = 62.
A further experiment has as its system Candida lipolytica. Nature of the experiment: CLSI M44 agar diffusion. It is filed as cell-based.
Experiment [4] relates to C. glabrata. Nature of the experiment: Candidemia Netherlands, MIC distributions against EUCAST ECOFF. It is filed as cell-based, Candida glabrata.
The subject of the next experiment is C. fermentati. Nature of the experiment: EUCAST E. Def 7.3.2 microdilution. It is filed as cell-based, Candida fermentati. As to conditions: n = 2.
Experiment [5] concerns environmental yeasts from a lagoon. The experiment is described as follows: organism not typed. It is filed as cell-based.
In experiment [6] the test system is Candida auris isolates. The experiment is described as follows: microbe, parasite or virus in culture. It is filed as cell-based. As to conditions: Candidozyma auris; […]; IQR given; read-out: median MIC.
Experiment [7] deals with C. auris III.8 and TAC1/MRR1 deletion strains. It is filed as cell-based, Candida auris.
The test system of experiment [8] is Phaeoacremonium parasiticum. Nature of the experiment: Antifungal susceptibility testing. It is filed as cell-based. How it is done:
Results: Cultures for bacteria were sterile. Culture on Sabouraud was positive after 5 days of incubation, showing slow growing and initially white colonies. […] Its identification was performed by sequencing the internal transcribed spacer (ITS) region of ribosomal DNA, being the isolate identified as Phaeoacremonium parasiticum (100% homology).

The test system of another experiment is C. krusei. It is filed as cell-based, Candida krusei.
Experiment [9] has as its system Rasamsonia argillacea species complex. The experiment is described as follows: Antifungal susceptibility testing. It is filed as cell-based. As to conditions: sputum isolate of a CF patient.
For another experiment, the system named is C. auris. Nature of the experiment: Postantifungal effect (PAFE). It is filed as cell-based, Candida auris. As to conditions: 2 and 4 mg/L, 1 h exposure, six blood isolates. How it is done:
Materials & Methods: PAFE experiments were performed in microtitre plates, with six C. auris clinical blood isolates (Hospital La Fe, Valencia, Spain). […] Cell pellets were re-suspended in RPMI medium and added back to the microtitre plates. Sample for viable counts were taken at 0, 2, 4, 6, 8, 24 and 48 h after re-suspension, plated in triplicate onto Sabouraud dextrose agar and incubated for 24–48 h at 37 °C. Experiments were performed in duplicate for each isolate on different days. PAFE was calculated as follows: PAFE = T − C. Where “T” is the time needed by the treated fungal cultures to growth 1 log after drug removal and “C” is the time needed by the control group to growth 1 log after last washout. Additionally, maximum log reductions of time-kill and PAFE experiments were compared and used to calculate a PAFE/time-kill index to determine the percentage of cell killing that could be attributed to the PAFE.

Experiment [10] concerns C. glabrata. Nature of the experiment: Antifungal susceptibility testing of blood culture isolate. It is filed as cell-based, Candida glabrata. The following applies: Nakaseomyces glabratus. The source says: Case presentation: A patient with a surgically corrected Tetralogy of Fallot and pulmonary valve replacement (BioPulmonic Conduit) was admitted to the cardiology ward for treatment of their progessively worsening symptomatic heart failure. Their medical history reports multiple other co-morbidities including supravalvular (prothetic pulmonary valve) stenosis, supraventricular tachycardia, atrial fibrillation, diabetes mellitus type I, and intellectual disability. No history of IV drug use or recent immunosuppressive therapy was reported. On admission they received diuretic treatment and a percutaneous intervention was planned to treat the supravalvular pulmonary stenosis. However, ten days after admission they developed fever (40.5 °C) with elevated C-reactive protein (237.9 mg/L) and leukocytosis (14.0 × 10^9/L). […] Anidulafungine IV was started and follow-up bloodcultures were taken routinely. The patient improved clinically and their inflammation markers normalized. However, the bloodcultures were persistently positive, albeit with periods of negative cultures, despite adequate treatment with high-dose anidulafungin 200 mg IV daily. International guidelines recommend surgery to treat Candida prostethic valve infective endocarditis and/or long-term suppressive therapy with antifungal drugs. […]

Experiment [11] deals with Aspergillus spp. isolates. The experiment is described as follows: Gradient strip susceptibility (Liofilchem). As to conditions: for isolates with in vitro high MIC values: first isolate per species and patient. It is filed as cell-based.
Setting [12] is: III.8 tac1a/tac1b strain vs parental.
Setting [13] is: III.8 tac1a/tac1b/mrr1 strain vs parental.

Turning to `CCC(C)n1ncn(-c2ccc(N3CCN(c4ccc(OCC5COC(Cn6cncn6)(c6ccc(Cl)cc6Cl)O5)cc4)CC3)cc2)c1=O` (centres unmarked) [itraconazole], in experiment [1], the “isolates with values equal to the clinical breakpoint” value worked out at 33% and the resistance of isolates result is “No resistance”. For the same compound, in the experiment on McLDM strains, the “MICs compared to AD2Δ” value is “not affected”. Further, in the experiment on Trichophyton spp., the “optimal agar concentration preventing growth of WT isolates” value was found to be 1 mg/L.

`OC(Cn1cncn1)(Cn1cncn1)c1ccc(F)cc1F` [fluconazole]: in the experiment on Candida auris isolates [2], the “median zone diameter (ZD)” value is 0 mm. Also, the MIC in experiment [3] (SC5314) is 0.5 µg/mL (≈ 1.63 µM); in experiment [3] (SC5314, 168 h) it was 8 µg/mL (≈ 26.1 µM); in the experiment on McLDM-F5, 42.7 µg/mL (≈ 139 µM); in the experiment with C. parapsilosis, 8 µg/mL (≈ 26.1 µM); in the experiment on C. guilliermondii (Meyerozyma guilliermondii, read-out: MIC of non wild-type isolates), 32 µg/mL; in experiment [5] (range, read-out: MIC of resistant-like isolates), 64 to 2050 µg/mL. Besides, the MIC with Candida auris isolates [6] was determined as 48 µg/mL (≈ 157 µM); in experiment [7] (III.8 tac1a/tac1b/mrr1 strain) it was 128 µg/mL (≈ 418 µM); in [7] (parental III.8 isolate) it was 512 µg/mL (≈ 1670 µM). In addition, the resistant isolates in the experiment on Candida isolates is 6.4%; in the experiment on Candida lipolytica ([…], discs 25 μg fluconazole, 1 μg voriconazole) it was 67%. Further, the MIC50 (as a rule, an inhibitory concentration at the 50% level, which refers to growth in some studies and to a panel of isolates in others) against Cryptococcal isolates worked out at 1 µg/mL (≈ 3.27 µM); against C. guilliermondii (Meyerozyma guilliermondii), 8 µg/mL (≈ 26.1 µM). Moreover, the MIC90 (commonly the lowest concentration that inhibits either 90% of growth or 90% of the strains tested, depending on the study) amounted to 4 µg/mL (≈ 13.1 µM) with Cryptococcal isolates and 16 µg/mL (≈ 52.2 µM) against C. guilliermondii (Meyerozyma guilliermondii). For the same compound, in the experiment with C. guilliermondii, the “MIC of non wild-type isolates” value turned out to be 64 µg/mL. Further, the GM with C. guilliermondii came to 7.655 µg/mL; with C. fermentati it was 2 µg/mL. The “MIC Range” value in the experiment with C. guilliermondii is 0.125 to 64 µg/mL; with C. fermentati, 2 µg/mL (≈ 6.53 µM). Also, in the experiment with C. glabrata [4], the “isolates within the wildtype distribution range” value worked out at 83.6%. Further, the “isolates classified as resistant-like” value in [5] (number of 71 yeasts, MIC at or above Candida breakpoint) is “Fifty-five”. The values for the MIC decrease in experiment [7] (III.8 mrr1 strain vs parental), in [7] (setting [12]) and in experiment [7] (setting [13]) were 2 fold, 2 fold and 4 fold, respectively.

Regarding `C[C@@H]1[C@H](O)[C@@H](C)/C=C/C=C/C=C/C=C/C=C/C=C/C=C/[C@H](O[C@@H]2O[C@H](C)[C@@H](O)[C@H](N)[C@@H]2O)C[C@@H]2O[C@](O)(C[C@@H](O)C[C@@H](O)[C@H](O)CC[C@@H](O)C[C@@H](O)CC(=O)O[C@H]1C)C[C@H](O)[C@H]2C(=O)O` [amphotericin B], the “minimal inhibitory concentrations (MIC), in words” value in [8] is “higher”. In addition, the “S (sensitive) isolates, n (%)” value in the experiment with C. krusei was 7 (100%). For the same compound, the MIC was 0.5 µg/mL (≈ 0.541 µM) in the experiment with C. parapsilosis; 0.38 µg/mL (≈ 0.411 µM) against C. glabrata [10]; > 32 µg/mL in experiment [11] (gradient strips, ten isolates (5 A. terreus, 3 A. flavus, 1 A. fumigatus, 1 A. nidulans)). The “MICs compared to AD2Δ” value in the experiment on McLDM strains is “not affected”. Further, the susceptibility entry in the experiment with Candida isolates is “susceptible”. Also, the “MIC50” value in the experiment on Cryptococcal isolates and in the experiment on C. guilliermondii (Meyerozyma guilliermondii) was 0.25 µg/mL (≈ 0.271 µM) in each case. Moreover, the “MIC90” value came out at 0.5 µg/mL (≈ 0.541 µM) in the experiment with Cryptococcal isolates and 0.25 µg/mL (≈ 0.271 µM) against C. guilliermondii (Meyerozyma guilliermondii). Further, the GM was 0.177 µg/mL with C. guilliermondii and 0.125 µg/mL with C. fermentati. In addition, the “MIC Range” value against C. guilliermondii fell in the range of 0.06 to 0.5 µg/mL; in the experiment with C. fermentati, 0.125 to 0.25 µg/mL. Also, in [9], the “minimal inhibitory concentrations (MIC)” value is given as “high minimal inhibitory concentrations”. The same compound had a PAFE with C. auris of 3.5 to 6.5 h. In the experiment on C. glabrata [4], the “isolates within the wildtype distribution range” value worked out at 98.6%. The “isolates with in vitro high MIC values” in [11] is given as 19.6%.

Consider `C[C@@H](c1ncncc1F)[C@](O)(Cn1cncn1)c1ccc(F)cc1F` [voriconazole], for which the “minimal inhibitory concentrations (MIC), in words” value in experiment [8] is reported as “low”. Besides, the “isolates in the area of technical uncertainty (ATU)” value in experiment [1] was 47%. Moreover, the “S (sensitive) isolates, n (%)” value in the experiment on C. krusei is reported as 7 (100%). The MIC with McLDM-F5 stood at 0.58 µg/mL (≈ 1.66 µM); in experiment [7] (III.8 tac1a/tac1b strain), 1 µg/mL (≈ 2.86 µM); in [7] (III.8 tac1a/tac1b/mrr1 strain), 0.5 µg/mL (≈ 1.43 µM); in experiment [7] (parental III.8 isolate), 2 µg/mL (≈ 5.73 µM). For the same compound, in experiment [9], the “minimal inhibitory concentrations (MIC)” value is listed as “high minimal inhibitory concentrations”. This compound returned a resistant isolates in the experiment with Candida lipolytica of 58%. The MIC decrease was found to be 2 fold in [7] (III.8 mrr1 strain vs parental), 2 fold in experiment [7] (setting [12]) and 4 fold in experiment [7] (setting [13]). Further, in experiment [11], the “isolates with in vitro high MIC values” is listed as 1.9%.
